In patent publication US8809347B2, “Bicyclic aryl and bicyclic heteroaryl substituted triazoles useful as AXL inhibitors” (Rigel Pharmaceuticals, Inc., priority 2006, dated 2014):
pIC50: −log10 of the molar value.

Each compound was assayed against T1, Axl (Homo sapiens, UniProt P30530) (assay: Phospho-Akt in-cell Western assay (inhibition of Axl activity)). Conditions: Hela cells; 1 hr pre-treatment; stimulation by Axl-antibody cross-linking; phospho-Akt chemiluminescence normalized to relative cell number.
T1 construct: Cells: Hela cells; endogenous in cells; host or cells: HeLa cells
T1 sequence (P30530 26-894): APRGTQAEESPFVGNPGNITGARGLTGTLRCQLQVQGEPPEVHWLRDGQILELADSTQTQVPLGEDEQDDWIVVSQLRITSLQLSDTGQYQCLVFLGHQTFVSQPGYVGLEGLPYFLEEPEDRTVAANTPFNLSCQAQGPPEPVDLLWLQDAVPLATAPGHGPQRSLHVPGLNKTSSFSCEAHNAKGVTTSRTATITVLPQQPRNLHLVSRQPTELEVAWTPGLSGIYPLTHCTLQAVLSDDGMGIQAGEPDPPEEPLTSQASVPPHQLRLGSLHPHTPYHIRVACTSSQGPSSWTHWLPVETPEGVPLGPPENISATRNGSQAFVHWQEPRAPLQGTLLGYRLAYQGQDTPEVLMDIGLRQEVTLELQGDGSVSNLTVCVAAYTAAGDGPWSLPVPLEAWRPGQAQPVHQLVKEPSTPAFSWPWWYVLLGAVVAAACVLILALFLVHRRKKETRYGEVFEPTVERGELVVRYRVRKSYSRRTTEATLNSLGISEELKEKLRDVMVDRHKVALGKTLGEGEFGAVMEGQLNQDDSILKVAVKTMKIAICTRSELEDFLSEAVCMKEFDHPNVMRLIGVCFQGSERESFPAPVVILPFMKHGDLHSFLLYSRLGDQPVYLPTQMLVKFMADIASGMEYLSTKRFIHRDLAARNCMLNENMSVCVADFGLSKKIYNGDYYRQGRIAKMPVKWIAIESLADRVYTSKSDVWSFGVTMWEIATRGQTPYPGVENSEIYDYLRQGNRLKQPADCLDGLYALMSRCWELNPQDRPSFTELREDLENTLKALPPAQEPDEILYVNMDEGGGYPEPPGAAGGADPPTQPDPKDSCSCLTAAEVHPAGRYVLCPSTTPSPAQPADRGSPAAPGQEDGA
Type: cell-based
Experimental: The compounds of the invention were tested in the following assay for their ability to inhibit Axl activity.
Phospho-Akt in-Cell Western Assay
• Cell culture plate: 96 well assay plate (Corning 3610), white, clear bottom, tissue-culture treated. • Cells: Hela cells. • Starvation medium: For Axl stimulation: 0.5% FCS (fetal calf serum) in DMEM, plus Axl/Fc (extracellular domain of AXL fused to immunoglobulin Fc region) (R&D, 154-AL) 500 ng/mL. • For EGF (epidermal growth factor) stimulation: 0.5% FCS in DMEM (Dulbecco's modified Eagles medium). • Poly-L-Lysine 0.01% solution (the working solution): […], dilute In PBS (phosphate buffered saline). • Axl antibody cross-linking: • 1st: Mouse anti-Axl (R&D, MAB154). • 2nd: Biotin-SP-conjugated AffiniPure goat anti-mouse IgG (H+ L) (Jackson ImmunoResearch #115-065-003). • Fixing buffer: 4% formaldehyde in PBS. • Wash buffer: 0.1% TritonX-100 in PBS. • Quenching buffer: 3% H2O2, 0.1% Azide in wash buffer, Azide and hydrogen peroxide (H2O2) are added fresh. • Blocking buffer: 5% BSA in TBST (tris buffered saline plus 0.1% Tween 20). • Primary antibody: Rabbit anti-human Phospho-Akt antibody (Cell Signaling 9271): 1×250 diluted in blocking buffer. • Secondary antibody: HRP (horse radish peroxidase)-conjugated Goat anti-Rabbit secondary, stock solution: Jackson ImmunoResearch (Goat anti-Rabbit HRP, #111-035-144) 1:1 diluted in glycerol, store at −20° C. The working solution: 1×2000 dilution of stock in blocking buffer. • Chemiluminescent working solution (Pierce, 37030): SuperSignal ELISA (enzyme linked immunosorbant assay) Pico Chemiluminescent substrate. • Crystal Violet solution: Stock: 2.5% Crystal violet in methanol, filtered and kept at ambient temperature. The working solution: dilute the stock 1:20 with PBS immediately before use. • 10% SDS: working solution: 5% SDS (sodium dodecylsulfate), diluted in PBS Methods: Day 1:
A 96 well TC (tissue culture treated) plate was coated with 10 μg/mL poly-L-Lysine at 37° C. for 30 min, washed twice with PBS, and air-dried for 5 minutes before cells were added. Hela cells were seeded at 10,000 cells/well and the cells were starved in 100 μL starvation medium containing Axl/Fc for 24 hrs.
The cells were pre-treated with test compounds by adding 100 μL of 2× test compound to the starvation medium on the cells. The cells were incubated at 37° C. for 1 hr before stimulation.
The cells were stimulated by Axl-antibody cross-linking as follows: A 5× 1st/2nd Axl antibody mixture was made (37.5 μg/mL 1st/100 μg/mL 2nd) in starvation medium and nutated at 4° C. with thorough mixing for 1-2 hours for clustering. The resulting mix was warmed to 37° C. 50 μL of 5× Axl 1st/2nd of antibody cluster was added to the cells and the cells were incubated at 37° C. for 5 min.
After 5 minutes stimulation, the plate was flicked to remove medium and the plate was tapped onto paper towels. Formaldehyde (4.0% in PBS, 100 μL) was added to fix the cells and the cells were incubated at ambient temperature for 20 min without shaking.
The cells were washed with a plate washer buffer to remove the formaldehyde solution. The plate was flicked to removed excess wash buffer and tapped onto paper towels. Quenching buffer (100 μL) was added to each well and the cells were incubated at ambient temperature for 20 minutes without shaking.
The cells were washed with a plate washer buffer to remove the quenching buffer. Blocking buffer (100 μL) was added and the cells were incubated at ambient temperature for at least an hour with gentle shaking.
The cells were washed with a plate washer buffer and diluted primary antibody (50 μL) was added to each well (blocking buffer was added to the negative control wells instead). The plates were incubated overnight at 4° C. with gentle shaking.
The wash buffer was removed, diluted secondary antibody (100 μL) was added, and the cells were incubated at ambient temperature for 1 hour with gentle shaking. […]

SMILES	pIC50
Nc1nc(Nc2ccc3c(c2)CCCN(C2CCCC2)CC3)nn1-c1nc2ccccc2s1 [Compound 32, 1-(benzo[d]thiazol-2-yl)-N^3-(3-cyclopentyl-1,2,3,4,5,6-hexahydrobenzo[d]azocin-8-yl)-1H-1,2,4-triazole-3,5-diamine]	5.00 to 6.00
Nc1nc(Nc2ccc3c(c2)CCN(C2CCCC2)CCC3)nn1-c1nc2ccccc2s1 [Compound 33, 1-(benzo[d]thiazol-2-yl)-N^3-(3-cyclopentyl-1,2,3,4,5,6-hexahydrobenzo[d]azocin-9-yl)-1H-1,2,4-triazole-3,5-diamine]	> 6.00
Cc1csc2c(-n3nc(Nc4cnc5c(c4)CCC(=O)CCC5)nc3N)nc(Cl)nc12 [Compound 34, 1-(2-chloro-7-methylthieno[3,2-d]pyrimidin-4-yl)-N^3-(7-oxo-5,6,8,9,10-pentahydrocycloocta[b]pyridin-3-yl)-1H-1,2,4-triazole-3,5-diamine]	> 6.00
Nc1nc(Nc2ccc(N3CCC(N4CCCC4)CC3)c(F)c2)nn1-c1ncnc2c1CCCCCC2 [Compound 35, N^3-(3-fluoro-4-(4-(pyrrolidin-1-yl)piperidin-1-yl)phenyl)-1-(5,6,7,8,9,10-hexahydrocycloocta[d]pyrimidin-4-yl)-1H-1,2,4-triazole-3,5-diamine]	> 6.00
Nc1nc(Nc2ccc(N3CC(N4CCCC4)C3)c(F)c2)nn1-c1ncnc2c1CCCCCC2 [Compound 36, N^3-(3-fluoro-4-(3-(pyrrolidin-1-yl)azetidin-1-yl)phenyl)-1-(5,6,7,8,9,10-hexahydrocycloocta[d]pyrimidin-4-yl)-1H-1,2,4-triazole-3,5-diamine]	> 6.00
Cc1csc2c(-n3nc(Nc4cnc5c(c4)CCC(N4CCCC4)CCC5)nc3N)nc(Cl)nc12 (stereo not drawn) [Compound 37, 1-(2-chloro-7-methylthieno[3,2-d]pyrimidin-4-yl)-N^3-(7-(pyrrolidin-1-yl)-5,6,7,8,9,10-hexahydrocycloocta[b]pyridin-3-yl)-1H-1,2,4-triazole-3,5-diamine]	> 6.00
Cc1csc2c(-n3nc(Nc4ccc5c(c4)CCCN(C4CC6CCC4C6)CC5)nc3N)nc(Cl)nc12 (stereo not drawn) [Compound 38, N^3-(3-(bicyclo[2.2.1]heptan-2-yl)-1,2,3,4,5,6-hexahydrobenzo[d]azocin-8-yl)-1-(2-chloro-7-methylthieno[3,2-d]pyrimidin-4-yl)-1H-1,2,4-triazole-3,5-diamine]	> 6.00
COc1cc2ncnc(-n3nc(Nc4ccc5c(c4)CCCN(C4CC6CCC4C6)CC5)nc3N)c2cc1OC (stereo not drawn) [Compound 39, N^3-(3-(bicyclo[2.2.1]heptan-2-yl)-1,2,3,4,5,6-hexahydrobenzo[d]azocin-8-yl)-1-(6,7-dimethoxyquinazolin-4-yl)-1H-1,2,4-triazole-3,5-diamine]	> 6.00
Cc1csc2c(-n3nc(Nc4cnc5c(c4)CCC(N4CCCC4)CCC5)nc3N)ncnc12 (stereo not drawn) [Compound 40, 1-(7-methylthieno[3,2-d]pyrimidin-4-yl)-N^3-(7-(pyrrolidin-1-yl)-5,6,7,8,9,10-hexahydrocycloocta[b]pyridin-3-yl)-1H-1,2,4-triazole-3,5-diamine]	> 6.00
Cc1csc2c(-n3nc(Nc4ccc5c(c4)CCCN(C4CCCC4)CC5)nc3N)ncnc12 [Compound 41, N^3-(3-cyclopentyl-1,2,3,4,5,6-hexahydrobenzo[d]azocin-8-yl)-1-(7-methylthieno[3,2-d]pyrimidin-4-yl)-1H-1,2,4-triazole-3,5-diamine]	> 6.00
Cc1csc2c(-n3nc(Nc4ccc5c(c4)CCCN(C4CC6CCC4C6)CC5)nc3N)ncnc12 (stereo not drawn) [Compound 42, N^3-(3-(bicyclo[2.2.1]heptan-2-yl)-1,2,3,4,5,6-hexahydrobenzo[d]azocin-8-yl)-1-(7-methylthieno[3,2-d]pyrimidin-4-yl)-1H-1,2,4-triazole-3,5-diamine]	> 6.00
Cc1csc2c(-n3nc(Nc4cnc5c(c4)CCC(NC4CCCCC4)CCC5)nc3N)ncnc12 (stereo not drawn) [Compound 43, N^3-(7-(cyclohexylamino)-5,6,7,8,9,10-hexahydrocycloocta[b]pyridin-3-yl)-1-(7-methylthieno[3,2-d]pyrimidin-4-yl)-1H-1,2,4-triazole-3,5-diamine]	> 6.00
Cc1csc2c(-n3nc(Nc4cnc5c(c4)CCC(N4CCN(C)CC4)CCC5)nc3N)ncnc12 (stereo not drawn) [Compound 44, N^3-(7-(4-methylpiperazin-1-yl)-5,6,7,8,9,10-hexahydrocycloocta[b]pyridin-3-yl)-1-(7-methylthieno[3,2-d]pyrimidin-4-yl)-1H-1,2,4-triazole-3,5-diamine]	> 6.00
Nc1nc(Nc2ccc(N3CCC(N4CCCC4)CC3)c(F)c2)nn1-c1cc(-c2ccccc2)c2c(n1)CCCCCC2 [Compound 45, N^3-(3-fluoro-4-(4-(pyrrolidin-1-yl)piperidin-1-yl)phenyl)-1-(4-phenyl-5,6,7,8,9,10-hexahydrocycloocta[b]-pyridin-2-yl)-1H-1,2,4-triazole-3,5-diamine]	5.00 to 6.00
CN1CCN(c2ccc(Nc3nc(N)n(-c4cc(-c5ccccc5)c5c(n4)CCCCCC5)n3)cc2)CC1 [Compound 46, N^3-(4-(4-methylpiperazin-1-yl)phenyl)-1-(4-phenyl-5,6,7,8,9,10-Hexahydrocycloocta[b]-pyridin-2-yl)-1H-1,2,4-triazole-3,5-diamine]	5.00 to 6.00
Nc1nc(Nc2ccc(OCCN3CCCC3)cc2)nn1-c1cc(-c2ccccc2)c2c(n1)CCCCCC2 [Compound 47, N^3-(4-(2-(pyrrolidin-1-yl)ethoxy)phenyl)-1-(4-phenyl-5,6,7,8,9,10-hexahydrocycloocta[b]-pyridin-2-yl)-1H-1,2,4-triazole-3,5-diamine]	5.00 to 6.00
Cc1csc2c(-n3nc(Nc4ccc5c(c4)C(=O)NCCCC5)nc3N)nc(Cl)nc12 [Compound 48, N^3-(1-oxo-1,2,3,4,5,6-hexahydrobenzo[c]azocin-9-yl)-1-(2-chloro-7-methylthieno[3,2-d]pyrimidin-4-yl)-1H-1,2,4-triazole-3,5-diamine]	> 6.00
Cc1csc2c(-n3nc(Nc4ccc5c(c4)C(=O)NCCCC5)nc3N)ncnc12 [Compound 49, N^3-(1-oxo-1,2,3,4,5,6-hexahydrobenzo[c]azocin-9-yl)-1-(7-methylthieno[3,2-d]pyrimidin-4-yl)-1H-1,2,4-triazole-3,5-diamine]	5.00 to 6.00
